biological target: Recombinant human HSD17B13 (Homo sapiens (Human), UniProt Q7Z5P4); experiment: HSD17B13 rapid-fire mass spectrometry assay (RF/MS assay); format: biochemical; settings: inhibition of HSD17B13; LTB4 10 μM, NAD+ 0.5 mM, RT 3 h; IC50 ranges A-E
Source text: HSD17B13 rapid-fire mass spectrometry assay (RF/MS assay). Recombinant human HSD17B13 was expressed and purified from sf9 cells at Charles River Labs (Saffron Walden, UK). Leukotriene B4 (Catalog #71160-24-2) and 12-oxoleukotriene B4 (Catalog #20140) were purchased from Cayman Chemicals (Ann Arbor, Michigan.). NAD+ (Catalog #N8285), BSA (Catalog #A7030), DMSO (Catalog #D2650), and Tween-20 (Catalog #11332465001) were purchased from Sigma (St. Louis, MO). Formic acid (Catalog #28905) was from ThermoFisher Scientific and 384 deep well PP microplates (Catalog #784261) were from Greiner Bio-One. In a typical IC50 assay performed in a 384w PP microplate, test compounds (0-100 μM) were incubated with HSD17B13 (80 nM), LTB4 (10 μM), and NAD^+ (0.5 mM) in 10 μL assay buffer (20 mM Tris (pH 7.5), BSA (0.005%), and Tween-20 (0.01%)) at RT for 3 h. The assays were quenched by adding 20 μL of 0.15% aqueous formic acid and the plates were frozen at −80° C. RF/MS analysis was performed at PureHoney Technologies (Billerica, MA) on a RapidFire RF300 system (Agilent Technologies, Inc.) coupled to an API 4000 triple quadrupole mass spectrometer (Sciex) equipped with Agilent RapidFire cartridge type A (C4). The mobile phase was 0.09% formic acid and 0.01% trifluoracetic acid in water (Buffer A) and 0.09% formic acid and 0.01% trifluoracetic acid in 80% aqueous acetonitrile (Buffer B). The RapidFire method conditions were the following: 250 ms aspirate, 3000 ms load/desalt, 4000 ms elute, and 500 ms re-equilibrate. RF-MS/MS was performed in negative polarity (−4500 V), the source temperature was 650° C., and gas 1 and gas 2 settings for nitrogen were set to 50. The curtain gas and collision gas were also nitrogen and were set to 20 and 12, respectively. Leukotriene B4 (335.3) and 12-oxoLeukotriene B4 (333.3) SRM transitions were optimized with Discovery Quant software and extracted ion counts for these analytes were determined.
Data Analysis. HSD17B13 enzyme activity was measured as percent conversion of extracted ion counts and normalized to high and low controls to determine percent residual activity at various concentrations of test compounds. Data were fitted to normalized activity (variable slope) versus concentration fit in GraphPad Prism 7 to determine IC50. All experiments were run in duplicates.
By using above method, the inhibition of HSD17B13 was evaluated for the compounds of Formula (I). IC50 ranges are as follows: A=IC50<0.100 μM; B=0.100 μM<IC50<0.500 μM; C=0.500 μM<IC50<1 μM; D=1 μM<IC50<100 μM; E=IC50>100 μM

Chain of Recombinant human HSD17B13 (Q7Z5P4 20-300): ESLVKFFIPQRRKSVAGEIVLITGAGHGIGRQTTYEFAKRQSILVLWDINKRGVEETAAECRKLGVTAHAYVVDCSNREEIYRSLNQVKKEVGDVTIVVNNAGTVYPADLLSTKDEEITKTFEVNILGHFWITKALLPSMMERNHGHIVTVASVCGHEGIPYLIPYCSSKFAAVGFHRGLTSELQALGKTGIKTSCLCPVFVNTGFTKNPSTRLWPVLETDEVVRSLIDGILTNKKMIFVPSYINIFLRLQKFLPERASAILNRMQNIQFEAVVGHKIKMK

| Compound | IC50 |
| --- | --- |
| COc1cc(C(=O)O)ccc1NS(=O)(=O)c1csc(C2CCC(c3ccccc3)CC2)n1 (single isomer, unassigned) [Example 369] | 0.1 to 0.5 µM |
| CCOc1cc(C(=O)O)ccc1NS(=O)(=O)c1cnc(-c2ccc(F)cc2)s1 [Example 1] | 0.5 to 1 µM |
| O=C(O)c1ccc(NS(=O)(=O)c2ccc(F)cc2)cc1 [Example 3] | 1 to 100 µM |
| O=C(O)c1ccc(NS(=O)(=O)c2ccc3ccccc3c2)cc1 [Example 4] | 1 to 100 µM |
| COc1cc2c(cc1C(=O)O)CN(S(=O)(=O)c1ccc(F)cc1)CC2 [Example 5, 2-((4-fluorophenyl)sulfonyl)-6-methoxy-1,2,3,4-tetrahydroisoquinoline-7-carboxylic acid] | > 100 µM |
| O=C(O)c1cc2c(cc1F)CCN(S(=O)(=O)c1ccc(F)cc1)C2 [Example 6, 6-fluoro-2-((4-fluorophenyl)sulfonyl)-1,2,3,4-tetrahydroisoquinoline-7-carboxylic acid] | 1 to 100 µM |
| O=C(O)c1ccc2c(c1)CCCN2S(=O)(=O)c1ccc(F)cc1 [Example 7] | 1 to 100 µM |
| COc1nc2c(cc1C(=O)O)CN(S(=O)(=O)c1ccc(F)cc1)CC2 [Example 8, 6-((4-fluorophenyl)sulfonyl)-2-methoxy-5,6,7,8-tetrahydro-1,6-naphthyridine-3-carboxylic acid] | > 100 µM |
| O=C(O)c1cc2c(cc1F)OCCN2S(=O)(=O)c1ccc(F)cc1 [Example 9, 7-fluoro-4-((4-fluorophenyl)sulfonyl)-3,4-dihydro-2H-benzo[b][1,4]oxazine-6-carboxylic acid] | 1 to 100 µM |
| O=C(O)c1ccc2c(c1)N(S(=O)(=O)c1ccc(F)cc1)CC2 [Example 10] | 1 to 100 µM |
| O=C(O)c1ccc2c(c1)CN(S(=O)(=O)c1ccc(F)cc1)C2 [Example 11] | > 100 µM |
| O=C(O)c1ccc2c(c1)CCN2S(=O)(=O)c1ccc(F)cc1 [Example 12] | > 100 µM |
| O=C(O)c1ccc2c(c1)CCN2S(=O)(=O)c1ccccc1 [Example 13] | 1 to 100 µM |
| O=C(O)c1cc2c(cc1F)N(S(=O)(=O)c1ccc(F)cc1)CCC2 [Example 14, 7-fluoro-1-((4-fluorophenyl)sulfonyl)-1,2,3,4-tetrahydroquinoline-6-carboxylic acid] | 1 to 100 µM |
| O=C(O)c1ccc(NS(=O)(=O)c2csc(-c3ccccc3)n2)cc1 [Example 15] | 0.5 to 1 µM |
| O=C(O)c1ccccc1NS(=O)(=O)c1cnc(-c2ccc(F)cc2)s1 [Example 16] | 1 to 100 µM |
| O=C(O)c1cccc(NS(=O)(=O)c2cnc(-c3ccc(F)cc3)s2)c1 [Example 17] | > 100 µM |
| COC(=O)c1ccc(NS(=O)(=O)c2cnc(-c3ccc(F)cc3)s2)cc1C [Example 18] | 1 to 100 µM |
| Cc1cc(NS(=O)(=O)c2cnc(-c3ccc(F)cc3)s2)ccc1C(=O)O [Example 19] | 0.5 to 1 µM |
| Cc1cc(C(=O)O)ccc1NS(=O)(=O)c1cnc(-c2ccc(F)cc2)s1 [Example 20] | 1 to 100 µM |

| Compound | IC50 |
| --- | --- |
| O=C(O)c1ccc(NS(=O)(=O)c2cnc(-c3ccc(F)cc3)s2)cc1F [Example 21] | 0.5 to 1 µM |
| COc1cc(NS(=O)(=O)c2cnc(-c3ccc(F)cc3)s2)ccc1C(=O)O [Example 22] | 1 to 100 µM |
| COc1cc(C(=O)O)ccc1NS(=O)(=O)c1cnc(-c2ccc(F)cc2)s1 [Example 23] | < 0.1 µM |
| O=S(=O)(Nc1ccccc1)c1cnc(-c2ccc(F)cc2)s1 [Example 24] | > 100 µM |
| O=S(=O)(Nc1ccccc1)c1csc(-c2ccccc2)n1 [Example 25] | > 100 µM |
| O=C(O)c1ccc(NS(=O)(=O)c2cnc(-c3ccc(F)cc3)s2)cn1 [Example 26] | 1 to 100 µM |
| O=C(O)Cc1ccc(NS(=O)(=O)c2cnc(-c3ccc(F)cc3)s2)cc1 [Example 27] | 1 to 100 µM |
| O=C(O)c1ccc(NS(=O)(=O)c2cnc(-c3ccc(F)cc3)s2)c(F)c1 [Example 28] | 0.1 to 0.5 µM |
| O=C(O)c1ccc(CNS(=O)(=O)c2cnc(-c3ccc(F)cc3)s2)cc1 [Example 29] | 1 to 100 µM |
| O=C(O)Cc1ccc(CNS(=O)(=O)c2cnc(-c3ccc(F)cc3)s2)cc1 [Example 30] | > 100 µM |
| CC(C)(C)c1ccc(S(=O)(=O)NC(=O)c2ccc(NS(=O)(=O)c3cnc(-c4ccc(F)cc4)s3)cc2)cc1 [Example 31, N-((4-(tert-butyl)phenyl)sulfonyl)-4-((2-(4-fluorophenyl)thiazole)-5-sulfonamido)benzamide] | 1 to 100 µM |
| CN(C)S(=O)(=O)NC(=O)c1ccc(NS(=O)(=O)c2cnc(-c3ccc(F)cc3)s2)cc1 [Example 32] | 1 to 100 µM |
| O=C(O)c1ccc(NS(=O)(=O)c2cnc(-c3ccc(F)cc3)s2)nc1 [Example 33] | 1 to 100 µM |
| O=S(=O)(Nc1ccc(-c2nnn[nH]2)cc1)c1cnc(-c2ccc(F)cc2)s1 [Example 34] | 1 to 100 µM |
| Cn1nnnc1-c1ccc(NS(=O)(=O)c2cnc(-c3ccc(F)cc3)s2)cc1 [Example 35] | 1 to 100 µM |
| O=S(=O)(Nc1ccc(CO)cc1)c1cnc(-c2ccc(F)cc2)s1 [Example 36, 2-(4-fluorophenyl)-N-(4-(hydroxymethyl)phenyl)thiazole-5-sulfonamide] | 1 to 100 µM |
| CC(C)Oc1cc(C(=O)O)ccc1NS(=O)(=O)c1cnc(-c2ccc(F)cc2)s1 [Example 37] | 1 to 100 µM |
| CC(C)(C)c1ccc(S(=O)(=O)NC(=O)OCc2ccc(NS(=O)(=O)c3cnc(-c4ccc(F)cc4)s3)cc2)cc1 [Example 38, 4-((2-(4-fluorophenyl)thiazole)-5-sulfonamido)benzyl ((4-(tert-butyl)phenyl)sulfonyl)carbamate] | 1 to 100 µM |
| COc1cc(C(=O)O)c(F)cc1NS(=O)(=O)c1cnc(-c2ccc(F)cc2)s1 [Example 39] | < 0.1 µM |
| O=C(O)c1ccc(NS(=O)(=O)c2cnc(-c3ccc(F)cc3)s2)c(O)c1 [Example 40, 4-((2-(4-fluorophenyl)thiazole)-5-sulfonamido)-3-hydroxybenzoic acid] | < 0.1 µM |

| Compound | IC50 |
| --- | --- |
| COc1ccc(NS(=O)(=O)c2cnc(-c3ccc(F)cc3)s2)cc1 [Example 42] | 1 to 100 µM |
| O=C(O)c1ccc(NS(=O)(=O)c2cnc(-c3ccc(F)cc3)s2)c(OC2CC2)c1 [Example 43] | 1 to 100 µM |
| O=C(O)c1ccc(NS(=O)(=O)c2cnc(-c3ccc(F)cc3)s2)c(C2CC2)c1 [Example 44] | 1 to 100 µM |
| O=C(O)c1ccc(NS(=O)(=O)c2cnc(-c3ccc(F)cc3)s2)c(C(F)(F)F)c1 [Example 45] | 1 to 100 µM |
| O=C(O)c1cc(F)c(NS(=O)(=O)c2cnc(-c3ccc(F)cc3)s2)c(F)c1 [Example 46] | 0.1 to 0.5 µM |
| O=C(O)c1ccc(NS(=O)(=O)c2cnc(-c3ccc(F)cc3)s2)cc1-c1ccccc1 [Example 47] | 1 to 100 µM |
| O=C(O)c1ccc(NS(=O)(=O)c2cnc(-c3ccc(F)cc3)s2)c(OC(F)(F)F)c1 [Example 48] | 1 to 100 µM |
| O=C(O)c1ccc(NS(=O)(=O)c2cnc(-c3ccc(F)cc3)s2)c(OC(F)F)c1 [Example 49] | 1 to 100 µM |
| O=C(O)c1ccc(NS(=O)(=O)c2cnc(-c3ccc(F)cc3)s2)c(F)c1F [Example 50] | 0.1 to 0.5 µM |
| O=C(O)c1ccc(S(=O)(=O)Nc2ccc(-c3nccs3)cc2)cc1 [Example 51] | 1 to 100 µM |
| O=C(O)c1ccc(NS(=O)(=O)c2cscn2)cc1 [Example 52] | 1 to 100 µM |
| Cc1nc(S(=O)(=O)Nc2ccc(C(=O)O)cc2)cs1 [Example 53] | 1 to 100 µM |
| Cc1cnn(-c2ccc(S(=O)(=O)Nc3ccc(C(=O)O)cc3)cc2F)c1 [Example 54] | 1 to 100 µM |
| Cc1sc(-c2ccc(F)cc2)nc1S(=O)(=O)Nc1ccc(C(=O)O)cc1 [Example 55, 4-((2-(4-fluorophenyl)-5-methylthiazole)-4-sulfonamido)benzoic acid] | 1 to 100 µM |
| COc1ccc(-c2nc(S(=O)(=O)Nc3ccc(C(=O)O)cc3)cs2)cc1 [Example 56, 4-((2-(4-methoxyphenyl)thiazole)-4-sulfonamido)benzoic acid] | 0.5 to 1 µM |
| O=C(O)c1ccc(NS(=O)(=O)c2csc(N3CCOCC3)n2)cc1 [Example 57, 4-((2-morpholinothiazole)-4-sulfonamido)benzoic acid] | 1 to 100 µM |
| O=C(O)c1ccc(NS(=O)(=O)c2csc(N3CCC(F)(F)CC3)n2)cc1 [Example 58] | 1 to 100 µM |
| COc1c(NS(=O)(=O)c2cnc(-c3ccc(F)cc3)s2)ccc(C(=O)O)c1F [Example 59] | 0.1 to 0.5 µM |

Source: US12384753B2, “17-beta-hydroxysteroid dehydrogenase type 13 inhibitors and methods of use thereof” (Enanta Pharmaceuticals, Inc., priority 2021, dated 2025)
